Data published in publication PMC9822434, “Estradiol-Based Salicylaldehyde (Thio)Semicarbazones and Their Copper Complexes with Anticancer, Antibacterial and Antioxidant Activities” (Molecules, 2022).

Experiments:
DU-145 = experiment: MTT cytotoxicity assay; type: cell-based, human; conditions: DU-145, MTT, 24 h incubation time
Protocol: (§1) To test the biological effects of the Cu(II) complexes and the ligands on human cancer cells, DU-145 prostate, A549 lung, and MCF-7 breast adenocarcinoma cells, as well as the multidrug-resistant MCF-7 KCR breast cancer cells were utilized. All the cell lines were maintained in RPMI-1640 media (Biosera, Nuaille, France) complemented with 10% fetal bovine serum (FBS), 2 mM L-glutamine, 0.01% streptomycin and 0.005% penicillin, (Biosera, Nuaille, France) and were cultured under standard conditions in a 37 °C incubator at 5% CO2 and 95% humidity. The cell lines were originally obtained from ATCC.
(§2) The effect of the complexes and of their ligands alone on the viability (on the metabolic activity) of human cancer cells was assessed by MTT assay. The tested compounds were dissolved in 90% (v/v) DMSO/H2O at 10 mM concentration. Equimolar solutions of the ligand CuCl2 salt were used for the cytotoxicity assays. The metal salts without ligands were also tested. For this, 1 × 10^4 cells/well were seeded into 96-well plates and left to grow overnight. On the following day, cells were exposed to increasing concentrations of each compound (0; 2.5; 5; 10; 15; 20 µM). After a 24 h incubation, cells were washed with PBS buffer and then incubated with 0.5 mg/mL MTT (Sigma-Aldrich, St Louis, Missouri, MO, USA) for 1 h at 37 °C. The formazan crystals were solubilized in DMSO (Molar Chemicals, Halásztelek, Hungary), and the absorbance of samples was determined at 570 nm using a Synergy HTX plate reader (BioTek, Winooski, Vermont, VT, USA). Absorption corresponding to the untreated control samples was considered as 100%.

MCF-7 KCR = experiment: MTT cytotoxicity assay; type: cell-based, human
Protocol: as §1, §2

MCF-7 = experiment: MTT cytotoxicity assay; type: cell-based, human; conditions: MCF-7, MTT, 24 h incubation time
Protocol: as §1, §2

A549 = experiment: MTT cytotoxicity assay; type: cell-based, human; conditions: 24 h incubation time
Protocol: as §1, §2

E. faecalis ATCC 29212 = experiment: MIC determination; type: cell-based, Enterococcus faecalis; conditions: Gram-positive E. faecalis ATCC 29212, Mueller Hinton Broth
Protocol: (§3) Klebsiella pneumoniae (ATCC 49619), Escherichia coli (ATCC 25922), Staphylococcus aureus (ATCC 25928) and Enterococcus faecalis (ATCC 29212) strains were used as Gram-negative and Gram-positive bacterial cultures. The stock solutions of the tested compounds (dissolved in 90% (v/v) DMSO/H2O at 10 mM concentration) were diluted in 100 μL of Mueller Hinton Broth, and then two-fold serial dilutions were performed. As a starting point, 100 μM concentration of the compounds was used. Then, 10^−4 dilution of an overnight bacterial culture in 100 μL of medium was added to each well, with the exception of the medium control wells. Minimum inhibitory concentration (MIC) values of compounds were determined according to our previous work.

[1] = cyclic voltammetry of Cu(II)-(T)SC (1:1) systems; type: physicochemical; conditions: 90% (v/v) DMSO/H2O, pH 7.40 (10 mM HEPES), 10 mV/s, 25 °C, I = 0.1 M (nBu4NPF6)
Protocol: Cyclic voltammograms of TSCs derivatives and their Cu(II) complexes at 25.0 ± 0.1 °C were recorded. nBu4NPF6 was used as a supporting electrolyte, and measurements were performed at pH 7.4. The complexes were obtained by mixing the ligand dissolved in DMSO with aqueous solution of CuCl2 in 1:1 ratio. The final concentration of stock was 1 mM. Measurements were performed on a conventional three-electrode system under argon atmosphere using an Autolab PGSTAT 204 potentiostat/galvanostat monitored with Metrohm’s Nova software. Samples were purged for 10 min with argon before recording the cyclic voltammograms. Platinum electrode was used as the working and auxiliary electrode and Ag/AgCl/3 M KCl as the reference electrode. The electrochemical system was calibrated with an aqueous solution of K3[Fe(CN)6] (E1/2 = +0.458 V vs. NHE). Redox potentials were obtained at 10 mV/s scan rate in the range of −1.3 to +0.8 V.

[2] = DPPH free radical scavenging assay; conditions: for TEAC (Trolox equivalent antioxidant capacity): DPPH assay in ethanol; for TEAC (Trolox equivalent antioxidant capacity) / % Scavenging Effect: 25 °C; for % Scavenging Effect: DPPH:compound = 1:1 ratio after 30 min, ethanol; for IC50: in ethanol, T = 25 °C, cDPPH = 50 µM, ccompound = 5−50 µM
Protocol: The DPPH (Sigma-Aldrich) free radical scavenging capacity was studied at 25.0 ± 0.1 °C on an Agilent Cary 3500 spectrophotometer with tightly closed tandem cuvette according to our approach with some modifications. The stock solution of DPPH (100 µM) was prepared in ethanol, and 0.5 mL of this solution was added to one pocket of the cuvette and 0.5 mL of the tested compound in different concentrations in ethanol was added to another. The final concentration of the studied compounds was in the range 5–50 µM, where for DPPH concentration, it was always 50 µM. A standard compound Trolox (Sigma-Aldrich) was used as a positive control. The percentage of the antioxidant activity (AA), IC50 values (the concentration of compound at which it reduced 50% of DPPH) and Trolox equivalent antioxidant capacity (TEAC) were calculated.

S. aureus ATCC 25928 = experiment: MIC determination; type: cell-based, Staphylococcus aureus; conditions: Gram-positive S. aureus ATCC 25928, Mueller Hinton Broth
Protocol: as §3

[3] = direct redox reaction of the Cu(II) complexes with GSH (UV–vis, anaerobic); type: physicochemical; conditions: Cu(II) complex (25 µM) of the named ligand with GSH (1.25 mM), pH 7.4, anaerobic, 30% (v/v) DMSO/H2O, 25.0 °C
Protocol: The redox reaction of the Cu(II) complexes with GSH and ascorbic acid was studied at 25.0 ± 0.1 °C, at pH 7.40 (10 mM HEPES with 0.1 M KCl) on an Agilent Cary 8454 diode array spectrophotometer using a special, tightly closed tandem cuvette (Hellma Tandem Cell, 238-QS). The complex and the reducing agent were separated until the reaction was triggered. Both isolated pockets of the tandem cuvette were completely deoxygenated by bubbling argon for 10 min before mixing the reactants. Spectra were recorded before and then immediately after the mixing, and changes were followed till no further absorbance change was observed. The stock solutions of the reducing agents and the complexes were freshly prepared every day.
During the calculations, the absorbance (A)−time (t) curves were fitted and analyzed at the λmax of the complex. (A0 − Afinal) × e ^(−a×t) + Afinal equation was used where A0, Afinal and a parameters were refined and accepted at the minimal value of the weighted sum of squared residuals (difference between the measured and calculated absorbance values) at the given wavelength. Then observed rate constants (kobs) of the redox reaction were obtained from the data points of the simulated absorbance–time curves as the slope of the ln(A/A0) versus t plots.

physchem = type: physicochemical
Protocol: (§4) An Orion 710A pH-meter equipped with a Metrohm combined electrode (type 6.0234.100) and a Metrohm 665 Dosimat burette were used for the UV–vis titrations at 25.0 ± 0.1 °C. Ionic strength of 0.10 M (KCl) was used to keep the activity coefficients constant. The titrations were performed with carbonate-free KOH solution of known concentration (0.10 M) with 30% (v/v) DMSO content. […] The average water ionization constant (pKw) is 14.54 ± 0.05 in the 30% (v/v) DMSO/H2O mixture. Argon was always passed over the solutions during the titrations. An Agilent Cary 8454 diode array spectrophotometer was used to record the UV–vis spectra at an interval of 200–800 nm. The path length was 2 cm. Spectrophotometric titrations were performed using a 0.1 M KOH titrant solution with 30% (v/v) DMSO on samples with 30% (v/v) DMSO containing HCl, KCl and the ligand at 20 μM concentration in the pH range 2.0–12.5 in the absence or in the presence of 1 or 0.5 equiv. Cu(II) ions. Proton dissociation constants (Ka) of the TSC ligands, the overall stability constants (β) of the Cu(II) complexes and the UV–vis spectra of the individual species were calculated by the computer program PSEQUAD [41] as was done in our previous works.

[4] = type: physicochemical; conditions: for logβ [CuLH−1] / logβ [CuL]+: Cu(II) complex of the named ligand, 30% (v/v) DMSO/H2O, T = 25.0 °C, I = 0.1 M (KCl); for pCu5.0: calculated at pH 5.0, cCu(II) = 20 µM; for pCu5.0 / pCu6.0 / pCu7.4: cligand = 20 µM; for pCu6.0: estimated at pH 6.0, cCu(II) = 20 µM; for pCu7.4: estimated at pH 7.4, cCu(II) = 20 µM
Protocol: as §4

[5] = Homo sapiens, MCF7, 24 h incubation time
[6] = Enterococcus faecalis, ATCC29212
[7] = Staphylococcus aureus, ATCC25928

Row | SMILES | IC50 (DU-145) | IC50 (MCF-7 KCR; 24 h incubation time) | IC50 (MCF-7) | IC50 (A549) | MIC (E. faecalis ATCC 29212) | formal potential E’ vs. Ag/AgCl/3M KCl [1] | TEAC (Trolox equivalent antioxidant capacity) [2] | % Scavenging Effect [2] | IC50 [2] | MIC (S. aureus ATCC 25928) | IC50 (DU-145; Homo sapiens) | IC50 (MCF-7 KCR; [5]) | IC50 (MCF-7; Homo sapiens, MCF7) | IC50 (A549; Homo sapiens) | MIC (E. faecalis ATCC 29212; [6]) | kobs [3] | pKa (physchem) | MIC (S. aureus ATCC 25928; [7]) | pKa [CuL]+ [4] | logβ [CuLH−1] [4] | further results
1 | CN(C)C([S-])=N/N=C/c1cc2c(cc1[O-])CC[C@@H]1[C@@H]2CC[C@]2(C)[C@@H](O)CC[C@@H]12.O.[Cu+2] [Cu(II)-Me2-estradiol-TSC] | 7.85 ± 1.08 µM | > 20 µM | 10.1 ± 1.36 µM | 3.44 ± 1.02 µM | 12.5 µM | +0.33 V | 0.7 | 40.4% | 16.4 µM | 0.78 µM | – | – | – | – | – | – | – | – | – | – | –
2 | CNC([S-])=N/N=C/c1cc2c(cc1[O-])CC[C@@H]1[C@@H]2CC[C@]2(C)[C@@H](O)CC[C@@H]12.O.[Cu+2] [Cu(II)-Me-estradiol-TSC] | 15.8 ± 1.08 µM | > 20 µM | 16.7 ± 1.66 µM | 3.71 ± 1.02 µM | 50 µM | +0.29 V | 0.6 | 33.6% | 20.3 µM | 6.25 µM | – | – | – | – | – | – | – | – | – | – | –
3 | CN(C)C(=S)NN=Cc1cc2c(cc1O)CC[C@@H]1[C@@H]2CC[C@]2(C)[C@@H](O)CC[C@@H]12 [Me2-estradiol-TSC, 2-((3,17 β-Dihydroxy-estra-1,3,5(10)-triene-2-yl)methylene)-N,N-dimethylhydrazine-1-carbothioamide] | – | – | – | – | – | – | 0.9 | 100% | 13.6 µM | – | > 20 µM | > 20 µM | > 20 µM | > 20 µM | > 100 µM | 0.31 ± 0.06 min⁻¹ | 9.2 ± 0.03 | > 100 µM | 3.85 | 10.11 ± 0.03 | logβ [CuL]+ [4]: 13.96 ± 0.03; pCu5.0 [4]: 8.0; pCu6.0 [4]: 9.6; pCu7.4 [4]: 12.4
4 | CNC(=S)NN=Cc1cc2c(cc1O)CC[C@@H]1[C@@H]2CC[C@]2(C)[C@@H](O)CC[C@@H]12 [Me-estradiol-TSC, 2-((3,17 β-Dihydroxy-estra-1,3,5(10)-triene-2-yl)Methylene)-N-methylhydrazine-1-carbothioamide] | – | – | – | – | – | – | 0.8 | 31.0% | 15.4 µM | – | > 20 µM | > 20 µM | > 20 µM | 15.8 ± 1.03 µM | > 100 µM | 0.22 ± 0.02 min⁻¹ | 9.28 ± 0.03 | > 100 µM | 4.08 | 9.59 ± 0.03 | logβ [CuL]+ [4]: 13.68 ± 0.03; pCu5.0 [4]: 7.6; pCu6.0 [4]: 9.1; pCu7.4 [4]: 11.8
5 | Cc1c(C)c2c(c(C)c1O)CCC(C)(C(=O)O)O2 (centres unmarked) [Trolox, 6-hydroxy-2,5,7,8-tetramethylchroman-2-carboxylic acid, reference compound] | – | – | – | – | – | – | 1 | 100% | 12 µM | – | – | – | – | – | – | – | – | – | – | – | –
6 | C[C@]12CC[C@@H]3c4ccc(O)cc4CC[C@H]3[C@@H]1CC[C@@H]2O [estradiol] | – | – | – | – | – | – | – | 0.5% | > 50 µM | – | – | – | – | – | – | – | – | – | – | – | –
